ChEMBL document CHEMBL1697781, “Assessment of the health effects of chemicals in humans: II. Construction of an adverse effects database for QSAR modeling” (Curr Drug Discov Technol, 2004)

Assays:
Conditions in all cases: human; call rule not given here
Hepatotoxicity [1] = test: FDA HLAED, liver enzyme composite activity
Hepatotoxicity [2] = test: FDA HLAED, alkaline phosphatase increase
Hepatotoxicity [3] = test: FDA HLAED, serum glutamic oxaloacetic transaminase (SGOT) increase
Hepatotoxicity [4] = test: FDA HLAED, serum glutamic pyruvic transaminase (SGPT) increase
Hepatotoxicity [5] = test: FDA HLAED, lactate dehydrogenase (LDH) increase
Hepatotoxicity [6] = test: FDA HLAED, gamma-glutamyl transferase (GGT) increase
Throughout, for GGT Increase - Index Value: reference of the scale not given here.
Throughout, for LDH Increase - Index Value: reference of the scale not given here.

| Structure (SMILES) | Composite Activity - Active (Hepatotoxicity [1]) | Composite Activity - Marginal (Hepatotoxicity [1]) | Composite Activity - Score (Hepatotoxicity [1]) | Alkaline Phosphatase Increase - Activity Score (Hepatotoxicity [2]) | Alkaline Phosphatase Increase - Index Value (Hepatotoxicity [2]) | Alkaline Phosphatase Increase - Number of Reports (Hepatotoxicity [2]) | SGOT Increase - Activity Score (Hepatotoxicity [3]) | SGOT Increase - Index Value (Hepatotoxicity [3]) | SGOT Increase - Number of Reports (Hepatotoxicity [3]) | SGPT Increase - Activity Score (Hepatotoxicity [4]) | SGPT Increase - Index Value (Hepatotoxicity [4]) | SGPT Increase - Number of Reports (Hepatotoxicity [4]) | LDH Increase - Activity Score (Hepatotoxicity [5]) | LDH Increase - Index Value (Hepatotoxicity [5]) | LDH Increase - Number of Reports (Hepatotoxicity [5]) | GGT Increase - Activity Score (Hepatotoxicity [6]) | GGT Increase - Index Value (Hepatotoxicity [6]) | GGT Increase - Number of Reports (Hepatotoxicity [6]) | also measured |
| --- | --- | --- | --- | --- | --- | --- | --- | --- | --- | --- | --- | --- | --- | --- | --- | --- | --- | --- | --- |
| Cc1cn([C@H]2C[C@H](N=[N+]=[N-])[C@@H](CO)O2)c(=O)[nH]c1=O [ZIDOVUDINE] | 4 | 0 | Active | Active | 5.1 | >= 4 | Active | 12.7 | >= 4 | Active | 4.8 | >= 4 | Active | 5.7 | >= 4 | Inactive | 0.9 | < 4 |  |
| CNS(=O)(=O)Cc1ccc2[nH]cc(CCN(C)C)c2c1 | 0 | 0 | Inactive | Inactive | 0.1 | >= 4 | Inactive | 0.3 | >= 4 | Inactive | 0.3 | >= 4 | Inactive | 0.1 | >= 4 | Inactive | 0.1 | < 4 |  |
| Brc1c(NC2=NCCN2)ccc2nccnc12 [BRIMONIDINE] |  |  |  | Inactive | 0 | < 4 | Inactive | 1.1 | < 4 | Inactive | 0 | < 4 | Inactive | 0 | < 4 | Inactive | 0 | < 4 | Composite Activity - Active (Hepatotoxicity [1]; Liver): 0; Composite Activity - Marginal (Hepatotoxicity [1]; Liver): 0; Composite Activity - Score (Hepatotoxicity [1]; Liver): Inactive |
| CC1(C)C(C=C(Cl)Cl)C1C(=O)OCc1cccc(Oc2ccccc2)c1 (configuration not stated) [PERMETHRIN] | 0 | 0 | Inactive | Inactive | 0 | < 4 | Inactive | 0 | < 4 | Inactive | 0 | < 4 | Inactive | 0 | < 4 | Inactive | 0 | < 4 |  |
| CCCCc1nc(Cl)c(CO)n1Cc1ccc(-c2ccccc2-c2nn[nH]n2)cc1 [LOSARTAN] | 0 | 0 | Inactive | Inactive | 0.4 | < 4 | Inactive | 0.8 | >= 4 | Inactive | 1 | >= 4 | Inactive | 0.4 | < 4 | Inactive | 0.6 | < 4 |  |
| C[C@]12CC[C@@H]3c4ccc(O)cc4CC[C@H]3[C@@H]1CC[C@@H]2OC(=O)CCC1CCCC1 [ESTRADIOL CYPIONATE] | 0 | 0 | Inactive | Inactive | 1.5 | >= 4 | Inactive | 2.8 | >= 4 | Inactive | 2.1 | >= 4 | Inactive | 1.2 | >= 4 | Inactive | 0.3 | < 4 |  |
| C[C@H]1O[C@H](O[C@H]2[C@H](O)[C@@H](O)[C@@H](O[C@H]3[C@H](O)[C@@H](O)C(O)O[C@@H]3CO)O[C@@H]2CO)[C@H](O)[C@@H](O)[C@@H]1N[C@H]1C=C(CO)[C@@H](O)[C@H](O)[C@H]1O (some centres not stated) [ACARBOSE] | 3 | 0 | Active | Inactive | 0 | < 4 | Active | 5.2 | >= 4 | Active | 5.2 | >= 4 | Inactive | 2.6 | < 4 | Active | 4.3 | >= 4 |  |
| Cc1cccc(C)c1OCC(C)N (configuration not stated) [MEXILETINE] |  |  |  | Marginally Active | 3.1 | >= 4 | Active | 6.7 | >= 4 | Marginally Active | 3.6 | >= 4 | Inactive | 2 | >= 4 | Inactive | 0 | < 4 | Composite Activity - Active (Hepatotoxicity [1]; Liver): 1; Composite Activity - Marginal (Hepatotoxicity [1]; Liver): 2; Composite Activity - Score (Hepatotoxicity [1]; Liver): Inactive |
| CC(=O)N(CC(O)CO)c1c(I)c(C(=O)NCC(O)CO)c(I)c(C(=O)NCC(O)CO)c1I (configuration not stated) [IOHEXOL] | 0 | 0 | Inactive | Inactive | 144.9 | < 4 | Inactive | 144.9 | < 4 | Inactive | 0 | < 4 | Inactive | 144.9 | < 4 | Inactive | 0 | < 4 |  |
